Experimental data: patent US6486199B1, “Spiro and dispiro 1,2,4-trioxolane antimalarials” (Medicines for Malaria Venture MMV International Centre …, priority 2001, dated 2002)
Values after ≈ are worked out from the molar mass of the structure shown. Read-outs that look alike come from different tables or passages of the source. Marks after values point to notes of the source that are not given here.

How the values were obtained:
[1] = tested on: chloroquine-sensitive NF54 strain of P. falciparum; test: in vitro screen against chloroquine-sensitive NF54 strain of P. falciparum; format: cell-based; conditions: for IC50: Plasmodium falciparum
[2] = tested on: chloroquine-resistant K1 strain of P. falciparum; test: in vitro screen against chloroquine-resistant K1 strain of P. falciparum; format: cell-based; conditions: for IC50: Plasmodium falciparum
[3] = tested on: 21-day-old schistosomules of Schistosoma mansoni; test: effect on 21-day-old schistosomules in mice; format: in vivo; conditions: single 200 mg/kg per os; for FWR (%): female worm reduction rate; for Mean female worm burden: mean ± standard deviation; for TWR (%): total worm reduction rate
Experimental: […] Each group was treated per os with OZ compounds at a single dose of 200 mg/kg. Untreated mice served as the control. All groups were killed 4 weeks after treatment and the liver and intestine were removed and separated. The liver and intestine were compressed and alive male and female worms could be seen and counted. The effect of the compounds was evaluated by mean total and female worm burden.

[4] = tested on: ANKA strain of P. Berghei; test: single dose STI in vivo screen in infected Moro SPF mice; conditions: for Activity (%) po / Activity (%) sc / inhibition in vivo at 10 mg/kg: percent reduction in parasitemia day 3 post-infection; for in vivo activity: 10 mg/kg po/sc data of Table 2; for inhibition in vivo at 10 mg/kg: Plasmodium berghei, 72 h
Experimental: In the single dose STI in vivo screen, Moro SPF mice infected with the ANKA strain of P. Berghei (groups of three mice) were treated on day one post-infection with trioxolanes dissolved or suspended in 3% ethanol and 7% Tween 80. […] Antimalarial activity was measured by percent redution in parasitemia on day three post-infection and survival times compared to an untreated control group. Survival to day 30 post-infection is considered to be a cure.

[5] = differential scanning calorimetry (DSC), thermal stability; format: physicochemical; conditions: thermal decomposition
[6] = tested on: adult schistosomes (49-day-old) of Schistosoma mansoni; test: effect on adult schistosomes (49-day-old) in mice; format: in vivo; conditions: single 400 mg/kg per os; for TWR (%): total worm reduction rate; for Mean total worm burden: x ± SD
Experimental: Mice were infected with 100 Schistosoma mansoni cercariae […]. Each group was treated per os with OZ compounds at a single dose of 400 mg/kg. Untreated mice served as the control. All groups were killed 4 weeks after treatment and the liver and intestine were removed and separated. The liver and intestine were compressed and alive male and female worms could be seen and counted.

[7] = NF54, read-out: IC50 (ng/ml) NF54
[8] = in vitro, NF54 strain, read-out: IC50 (ng/ml) NF54
[9] = in vitro, K1 strain, read-out: IC50 (ng/ml) K1

O=[N+]([O-])c1ccc(NN=C2CCC3(CC2)OOC2(O3)C3CC4CC(C3)CC2C4)c([N+](=O)[O-])c1 (stereo not drawn) [OZ29, Adamantane-2-spiro-3′-1′,2′,4′-trioxaspiro[4.5] decan-8′-one 2,4-dinitrophenylhydrazone]
IC50 [1, 7]: 13 ng/mL (≈ 0.0284 µM)
IC50 ([2]; K1, read-out: IC50 (ng/ml) K1): 9.7 ng/mL (≈ 0.0212 µM)
FWR (%) [3]: 20%
Mean female worm burden [3]: 10.0 ± 3.7^a
TWR (%) [3]: 28%
Activity (%) po ([4]; single 10 mg/kg po): 0/0%
Activity (%) sc ([4]; single 10 mg/kg sc): 0/0%
Survival (days) po ([4]; single 10 mg/kg po): 5.0/5.0 days
Survival (days) sc ([4]; single 10 mg/kg sc): 5.0/5.0 days
Tm dec. (° C.) [5]: 155.7 °C
Percentage of dead worm [6]: 0
Total dead worm [6]: 0
TWR (%) [6]: 13.4%
Mean total worm burden [6]: 31.0 ± 13.7^a

O=C1CCC2(CCO1)OOC1(O2)C2CC3CC(C2)CC1C3 (stereo not drawn) [OZ17, Adamantane-2-spiro-3′-9′-oxo-1′,2′,4′,8′-tetraoxaspiro[4.6]undecane]
IC50 (ng/ml) NF54 ([1]; in vitro, NF54 strain): > 100 ng/mL
IC50 (ng/ml) K1 ([2]; in vitro, K1 strain): 85 ng/mL (≈ 0.289 µM)
FWR (%) [3]: 7%
Mean female worm burden [3]: 11.6 ± 3.3^a
TWR (%) [3]: 23%
Tm dec. (° C.) [5]: 158.4 °C
Percentage of dead worm [6]: 5.2 (10/191)
Total dead worm [6]: 10
TWR (%) [6]: 0%
Mean total worm burden [6]: 36.2 ± 13.8

O=C(O)CC1CCC2(CC1)OOC1(O2)C2CC3CC(C2)CC1C3 (stereo not drawn) [OZ78, Adamantane-2-spiro-3′-8′-carboxymethyl-1′,2′,4′-trioxaspiro[4.5]decane]
IC50 (ng/ml) NF54 ([1]; in vitro, NF54 strain): >10/>10 ng/ml
IC50 (ng/ml) K1 ([2]; in vitro, K1 strain): >10/>10 ng/ml
in vitro potency ([2]; in vitro, strains not distinguished): only weakly active
in vivo activity [4]: promising
Tm dec. (° C.) [5]: 157.5 °C

c1ccc(C2CCC3(CC2)OOC2(CCC(c4ccccc4)CC2)O3)cc1 (stereo not drawn) [OZ62, 3,11-Diphenyl-7,14,15-trioxadispiro[5.1.5.2]pentadecane]
IC50 [1, 8]: 28 ng/mL (≈ 0.0768 µM)
IC50 [2, 9]: 33 ng/mL (≈ 0.0905 µM)
Activity (%) po ([4]; single 10 mg/kg po): 0/0%
Activity (%) sc ([4]; single 10 mg/kg sc): 0/0%
Tm dec. (° C.) [5]: 201.0 °C

O=C1CCC2(CC1)OOC1(CCCCCCCCCCC1)O2 [OZ21, 3-Oxo-7,20,21-trioxadispiro[5.1.11.2]heneicosane]
IC50 [1, 7]: 25 ng/mL (≈ 0.0805 µM)
IC50 ([2]; K1, read-out: IC50 (ng/ml) K1): 14 ng/mL (≈ 0.0451 µM)
in vitro potency, fold less potent than the analog ([2]; in vitro): 70 fold
FWR (%) [3]: 0%
Mean female worm burden [3]: 15.0 ± 9.7
TWR (%) [3]: 0%
in vivo activity [4]: all in vivo activity was lost
Activity (%) po ([4]; single 10 mg/kg po): 0/0%
Activity (%) sc ([4]; single 10 mg/kg sc): 0/0%
Tm dec. (° C.) [5]: 190.7 °C
Percentage of dead worm [6]: 0
Total dead worm [6]: 0
TWR (%) [6]: 0%
Mean total worm burden [6]: 36.2 ± 9.0

c1ccc(C2(c3ccccn3)OOC3(O2)C2CC4CC(C2)CC3C4)nc1 (stereo not drawn) [OZ81, Adamantane-2-spiro-3′-5′,5′-bis(2′-pyridyl)-1′,2′,4′-trioxolane]
IC50 (ng/ml) NF54 ([1]; in vitro, NF54 strain): >10/>10 ng/ml
IC50 (ng/ml) K1 ([2]; in vitro, K1 strain): >10/>10 ng/ml
antimalarial activity, overall assessment ([4]; overall judgement of in vitro and in vivo data of Table 2): inactive
Activity (%) po ([4]; single 10 mg/kg po): 0/0%
Activity (%) sc ([4]; single 10 mg/kg sc): 0/0%
Tm dec. (° C.) [5]: 150.7 °C

Cc1ccc(S(=O)(=O)NN=C2CCC3(CC2)OOC2(O3)C3CC4CC(C3)CC2C4)cc1 (stereo not drawn) [OZ39, Adamantane-2-spiro-3′-1′,2′,4′-trioxaspiro[4.5]decan-8′-one tosylhydrazone]
IC50 [1, 8]: 1.8 ng/mL (≈ 0.00403 µM)
IC50 [2, 9]: 1.4 ng/mL (≈ 0.00314 µM)
IC50 ([2]; in vitro, K1 and NF54 strains not distinguished, read-out: IC50): < 2 ng/mL
inhibition in vivo at 10 mg/kg ([4]; single 10 mg/kg po, read-out: Activity (%) po): 61%
inhibition in vivo at 10 mg/kg ([4]; single 10 mg/kg sc, read-out: Activity (%) sc): 99.3%
Tm dec. (° C.) [5]: 146.9 °C
